Measured values published in patent publication US9290457B2, “Substituted dihydropyrimidinones and their use as inhibitors of neutrophil elastase activity” (Boehringer Ingelheim International GmbH, priority 2014, dated 2016).

How the values were obtained:
neutrophil elastase = neutrophil elastase (Homo sapiens (Human), UniProt P08246); assay: Neutrophil elastase inhibitory activity in human plasma; format: biochemical; conditions: zymosan-stimulated human plasma, substrate MeOSuc-Ala-Ala-Pro-Val-AMC
Procedure: Assay for the Determination of Neutrophil Elastase Inhibitory Activity in Human Plasma
Citrated blood from human healthy donors is mixed with zymosan suspension and incubated at room temperature. This leads to the stimulation of neutrophils and the release of neutrophil elastase into the plasma. The stimulated blood is centrifuged to generate the neutrophil elastase enriched plasma.
Preparation of Zymosan Working Solution:
• A single 45 ml blood sample is taken into a 50 ml tube containing citrate (3.13%, 5 mL) and the tube is gently inverted 4 times. • Immediately after blood sampling, zymosan working solution (5 mL) is added. • After the addition of zymosan working solution, the tubes are capped, mixed gently and incubated at 22° C. for 15 min on a shaker at 20 rpm. • Make 10 ml aliquots after the incubation time. • Centrifuge the 15 ml tubes at 800 g for 15 min at 4° C. in a Jouan centrifuge. • Harvest the plasma and make 1-5 ml aliquots. • Store the plasma at −80° C.
Various concentrations of the neutrophil elastase inhibitor are incubated with plasma. Subsequently, the enzyme activity is measured using the fluorogenic substrate MeOSuc-Ala-Ala-Pro-Val-AMC (Bachem Cat. No. I-1270, substrate concentration: 250 μM, pH 7.5, 25 mM TRIS buffer, 250 mM NaCl) in analogous fashion as described for the human neutrophil assay. A dose response curve is generated to calculate the EC50 of the inhibitor. The analysis of the data is performed by the calculation of the percentage of fluorescence in the presence of the test compound compared to the fluorescence of the vehicle control after subtracting the background fluorescence: An inhibitor of the neutrophil elastase enzyme will give values between 100% control (no inhibition) and 0% control (complete inhibition).

[1] = Drug transport across human Caco-2 cells; format: in vitro ADME; conditions: human, Caco-2, pH 7.2, 37° C.; for Papp A→B at 10 μM: apical-to-basal, read-out: PEAB; for Papp B→A at 10 μM: basal-to-apical, read-out: PEBA
Description: (§1) Assay for Determination of Drug Transport Across Human Caco-2 Cells
(§2) The assay provides information on the potential of a compound to pass the cell membrane, on the extent of oral absorption as well as on whether the compound is actively transported by uptake and/or efflux transporters. For the measurement of permeability across polarized, confluent human cancer colon carcinoma cells 2 (Caco-2) cell monolayers grown on permeable filter supports are used as the in vitro absorption model.
(§3) Apparent permeability coefficients (PE) of the compounds across the Caco-2 monolayers are measured (pH 7.2, 37° C.) in apical-to-basal (AB) (absorptive) and basal-to-apical (BA) (secretory) transport direction. AB permeability (PEAB) represents drug absorption from the intestine into the blood and BA permeability (PEBA) drug secretion from the blood back into the intestine via both passive permeability as well as active transport mechanisms mediated by efflux and uptake transporters that are expressed on the Caco-2 cells. The compounds are assigned to permeability/absorption classes by comparison of the AB permeabilities with the AB permeabilities of reference compounds with known in vitro permeability and oral absorption in the human. Identical or similar permeabilities in both transport directions indicate passive permeation, vectorial permeability points to additional active transport mechanisms. […] Active transport is concentration-dependently saturable.
(§4) Caco-2 cells (1-2*10^5 cells/cm^2 area) are seeded on filter inserts (Costar transwell polycarbonate or PET filters, 0.4 μm pore size) and cultured (DMEM) for 10 to 25 days. Compounds are dissolved in appropriate solvent (like DMSO, 1-20 mM stock solutions). Stock solutions are diluted with HTP-4 buffer (128.13 mM NaCl, 5.36 mM KCl, 1 mM MgSO4, 1.8 mM CaCl2, 4.17 mM NaHCO3, 1.19 mM Na2HPO4x7H2O, 0.41 mM NaH2PO4xH2O, 15 mM HEPES, 20 mM glucose, pH 7.2) to prepare the transport solutions (typically 10 μM compound, final DMSO<=0.5%). The transport solution (TL) is applied to the apical or basolateral donor side for measuring A-B or B-A permeability (3 filter replicates), respectively. The receiver side contains HTP-4 buffer supplemented with 2% BSA. Samples are collected at the start and end of experiment from the donor and at various time intervals for up to 2 hours also from the receiver side for concentration measurement by LC-MS/MS or scintillation counting. Sampled receiver volumes are replaced with fresh receiver solution.
(§5) The apparent permeability coefficients (PEAB and PEBA) of selected compounds in the Caco-2 drug transport assay described above are listed in Table 5.

Caco-2 cells = assay: Drug transport across human Caco-2 cells; format: in vitro ADME; conditions: pH 7.2, 37° C.; for PEAB: apical-to-basal; for PEBA: basal-to-apical
Description: as §1, §2, §3, §4, §5

cytochrome P450 2C19 = cytochrome P450 2C19 (Homo sapiens (Human), UniProt P33261); assay: Cytochrome P450 2C19 inhibition; format: in vitro ADME; conditions: human liver microsomes, Mephenytoin hydroxylation; read-out: IC50 CYP2C19 inhibition
Procedure: Assay for Determination of Cytochrome P450 2C19 Inhibition
All assays are carried out on a robotic system in 96 well plates. The final incubation volume contains TRIS buffer (0.1 M), MgCl2 (5 mM), human liver microsomes (0.5 mg/ml), (S)-Mephenytoin (70 μM) and the test compound at five different concentrations or no compound (high control) in duplicate (e.g. highest concentration 10-50 μM with subsequent serial 1:4 dilutions). Following a short preincubation period, reactions are started with the cofactor (NADPH, 1 mM) and stopped by cooling the incubation down to 8° C. and subsequently by addition of one volume of acetonitrile. An internal standard solution—usually the stable isotope of the formed metabolite—is added after quenching of incubations. Peak area analyte (=metabolite formed) and internal standard is determined by LC-MS/MS. The resulting peak area ratio analyte to internal standard in these incubations is compared to a control activity containing no test compound.
If the inhibition of the reaction is already >50% at the lowest concentration of the test compound, the IC50 is assigned “<lowest concentration tested” (usually <0.4 μM). If the inhibition of the reaction is still <50% at the highest concentration of the test compound, the IC50 is assigned “>highest concentration tested” (usually >50 μM).

neutrophil elastase, sequence (P08246 30-267): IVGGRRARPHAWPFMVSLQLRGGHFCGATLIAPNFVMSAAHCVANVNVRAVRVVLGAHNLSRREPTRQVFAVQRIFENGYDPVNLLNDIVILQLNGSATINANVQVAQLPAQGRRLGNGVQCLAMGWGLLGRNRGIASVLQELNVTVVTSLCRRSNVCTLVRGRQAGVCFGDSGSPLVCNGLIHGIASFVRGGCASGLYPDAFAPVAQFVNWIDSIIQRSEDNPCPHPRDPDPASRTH
cytochrome P450 2C19, sequence (P33261 whole entry): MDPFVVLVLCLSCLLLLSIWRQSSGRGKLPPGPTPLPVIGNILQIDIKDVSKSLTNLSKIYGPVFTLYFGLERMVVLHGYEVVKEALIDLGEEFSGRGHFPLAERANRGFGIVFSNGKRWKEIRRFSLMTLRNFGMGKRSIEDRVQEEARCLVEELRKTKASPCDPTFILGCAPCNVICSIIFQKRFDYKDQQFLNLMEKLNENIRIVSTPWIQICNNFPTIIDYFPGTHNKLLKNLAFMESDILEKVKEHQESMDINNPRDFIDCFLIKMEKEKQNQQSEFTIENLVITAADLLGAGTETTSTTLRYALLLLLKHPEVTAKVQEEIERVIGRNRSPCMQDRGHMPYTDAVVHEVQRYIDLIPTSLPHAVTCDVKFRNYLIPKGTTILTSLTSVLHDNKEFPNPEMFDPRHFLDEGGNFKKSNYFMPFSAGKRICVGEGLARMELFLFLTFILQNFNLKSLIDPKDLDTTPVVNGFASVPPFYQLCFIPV

CC(=O)C1=C(C)N(c2cccc(C(F)(F)F)c2)C(=O)N(C)C1c1ccc(C#N)cc1C(=O)NCC(C)(C)O (centres unmarked) [Example 1.22]
EC50 (neutrophil elastase): 2 nM | Papp A→B at 10 μM [1]: 7.8 ×10⁻⁶ cm/s | Papp B→A at 10 μM [1]: 81 ×10⁻⁶ cm/s

CNC(=O)c1cc(C#N)ccc1[C@@H]1C(C(C)=O)=C(C)N(c2cccc(C(F)(F)F)c2)C(=O)N1C [Example 13.1]
EC50 (neutrophil elastase): 1 nM | PEAB (Caco-2 cells): 33 ×10⁻⁶ cm/s | PEBA (Caco-2 cells): 80 ×10⁻⁶ cm/s | IC50 (cytochrome P450 2C19): > 50000 nM

CC(=O)C1=C(C)N(c2cccc(C(F)(F)F)c2)C(=O)N(C)C1c1ccc(C#N)cc1C(=O)NCCF (centres unmarked) [Example 1.10]
EC50 (neutrophil elastase): 1 nM | PEAB (Caco-2 cells): 39 ×10⁻⁶ cm/s | PEBA (Caco-2 cells): 78 ×10⁻⁶ cm/s

CC(=O)C1=C(C)N(c2cccc(C(F)(F)F)c2)C(=O)N(C)[C@@H]1c1ccc(C#N)cc1-c1ccn(C)c(=O)c1 [Example 17, 4-[(R)-5-Acetyl-3,6-dimethyl-2-oxo-1-(3-trifluoromethyl-phenyl)-1,2,3,4-tetrahydro-pyrimidin-4-yl]-3-(1-methyl-2-oxo-1,2-dihydro-pyridin-4-yl)-benzonitrile]
EC50 (neutrophil elastase): 5 nM | Papp A→B at 10 μM [1]: 11 ×10⁻⁶ cm/s | Papp B→A at 10 μM [1]: 114 ×10⁻⁶ cm/s

CC(=O)C1=C(C)N(c2cccc(C(F)(F)F)c2)C(=O)N(C)C1c1ccc(C#N)cc1C(=O)NC1CC1 (centres unmarked) [Example 1.8]
EC50 (neutrophil elastase): 1 nM | PEAB (Caco-2 cells): 44 ×10⁻⁶ cm/s | PEBA (Caco-2 cells): 74 ×10⁻⁶ cm/s

CC(=O)C1=C(C)N(c2cccc(C(F)(F)F)c2)C(=O)N(C)C1c1ccc(C#N)cc1C(=O)N1CCn2ncnc2C1 (centres unmarked) [Example 1.73]
EC50 (neutrophil elastase): 2 nM | Papp A→B at 10 μM [1]: 5.1 ×10⁻⁶ cm/s | Papp B→A at 10 μM [1]: 92 ×10⁻⁶ cm/s

CC(=O)C1=C(C)N(c2cccc(C(F)(F)F)c2)C(=O)N(C)[C@@H]1c1ccc(C#N)cc1-c1ccc(=O)n(C)c1 [Example 16, 4-[(R)-5-Acetyl-3,6-dimethyl-2-oxo-1-(3-trifluoromethyl-phenyl)-1,2,3,4-tetrahydro-pyrimidin-4-yl]-3-(1-methyl-6-oxo-1,6-dihydro-pyridin-3-yl)-benzonitrile]
EC50 (neutrophil elastase): 1 nM | Papp A→B at 10 μM [1]: 12 ×10⁻⁶ cm/s | Papp B→A at 10 μM [1]: 120 ×10⁻⁶ cm/s | IC50 (cytochrome P450 2C19): > 50000 nM

CC(=O)C1=C(C)N(c2cccc(C(F)(F)F)c2)C(=O)N(C)C1c1ccc(C#N)cc1C(=O)NCC#N (centres unmarked) [Example 1.6]
EC50 (neutrophil elastase): 1 nM | PEAB (Caco-2 cells): 10 ×10⁻⁶ cm/s | PEBA (Caco-2 cells): 81 ×10⁻⁶ cm/s
